Source: publication PMC8035703, “Effect of Synchronous Versus Sequential Regimens on the Pharmacokinetics and Biodistribution of Regorafenib with Irradiation” (Pharmaceutics, 2021)
Read-outs that look alike come from different tables or passages of the source.

Experiments:
[1] = Organ distribution of regorafenib in rats with or without RT; type: in vivo, Sprague-Dawley rats; conditions: for concentration at 4 h: male, Sprague-Dawley, 16 mg/kg, 4 h after oral administration
Protocol: According to the formula used to translate doses from animal to human, human equivalent dose (HED, mg/kg) = animal dose (mg/kg) × animal km/human km, we calculated the daily dose of regorafenib for rats to be 16 (mg/kg/day). The rats were randomly divided into ten groups with six rats in each group. The concurrent groups treated with regorafenib 1 h after RT, in the same day, to mimic regorafenib concurrent with RT in the daily practice. The sequential groups treated with regorafenib following RT (not in the same day), to mimic RT followed by regorafenib in the daily practice. The one fraction study group included (A) a sham group, regorafenib with RT0 Gy (regorafenib × 1 d); concurrent groups treated with regorafenib 1 h after (B) RT2 Gy with 1 fraction (RT2 Gy × 1 f’x) and (D) RT9 Gy with 1 fraction (RT9 Gy × 1 f’x); and sequential groups treated with regorafenib 24 h after (C) RT2 Gy × 1 f’x and (E) RT9 Gy × 1 f’x. Continued treatment mimicking clinical practice was applied to (A) a sham group, regorafenib (p.o. (per os), q.d. × 3 d) with RT0 Gy (regorafenib × 3 d); concurrent groups treated with regorafenib (p.o., q.d. × 3 d) 1 h after (B) RT2 Gy with 3 fractions (RT2 Gy × 3 f’x) and (D) RT9 Gy with 3 fractions (RT9Gy × 3 f’x); and sequential groups treated with regorafenib 24 h (p.o., q.d. × 3 d) after (C) RT2 Gy × 3 f’x and (E) RT9 Gy × 3 f’x. (Figure 1A,B).
Organs, including the brain, liver, heart, spleen, lung and kidney, were collected, weighed and stored at −20 °C, until analysis.
The organ samples were homogenized in 50% aqueous acetonitrile (sample weight: volume = 1:5) and centrifuged at 13,000× g, for 10 min, at 4 °C. The supernatant was stored at −20 °C, until analysis. Additionally, 150 μL of IS solution (diethylstilbestrol) was combined with each organ sample (50 μL) for protein precipitation. Finally, the filtrate (20 μL) was analyzed by HPLC.

Hep G2 cells = assay: Cell viability assay (MTT), Hep G2; type: cell-based; conditions: Homo sapiens; for IC50: MTT after 24 h, read-out: IC50 (estimated concentration at which 50% of cells were killed); for viability at 5 µM: HepG2, regorafenib 5 μM; for viability at 10 µM: HepG2, regorafenib 10 μM; for viability at 20 µM: HepG2, regorafenib 20 μM
Protocol: Human hepatoma Huh-7 and Hep G2 cell lines kindly provided by Professor Hu (Taipei Veterans General Hospital, Taiwan) were plated into 96-well plates (1 × 10^3 per well) with serum-containing medium (100 μL) for 1 day. Regorafenib at concentrations of 0, 5, 10 and 20 μmol/L (μM) was added to the plates. Then, the study groups were designed: the concurrent group (1 h after irradiation) or sequential group (24 h after irradiation) with sham RT (RT0 Gy), 2 Gy (RT2 Gy) and 9 Gy (RT9 Gy). Additionally, after 24 h, 20 μL of 5 mg/mL MTT was added to the plates and incubated for 3 h. The supernatant was discarded, the precipitate was dissolved in 200 μL DMSO, and the plates were read with a microplate reader at 570 nm and a reference wavelength of 630 nm.

CNC(=O)c1cc(Oc2ccc(NC(=O)Nc3ccc(Cl)c(C(F)(F)F)c3)c(F)c2)ccn1 [regorafenib, Regorafenib]
concentration at 4 h ([1]; rat, liver, oral, rat, RT2 Gy × 1 f'x with regorafenib 16 mg/kg × 1 d (concurrent), read-out: Concentration in liver): 1100 ± 510 ng/g | concentration at 4 h ([1]; rat, liver, oral, rat, RT9 Gy × 1 f'x followed by regorafenib 16 mg/kg × 1 d (sequential), read-out: Concentration in liver): 2390 ± 1200 ng/g | concentration at 4 h ([1]; rat, liver, oral, rat, RT9 Gy × 3 f'x followed by regorafenib 16 mg/kg × 3 d (sequential), read-out: Concentration in liver): 1160 ± 1120 ng/g | concentration at 4 h ([1]; rat, liver, oral, rat, RT9 Gy × 3 f'x with regorafenib 16 mg/kg × 3 d (concurrent), read-out: Concentration in liver): 700 ± 290 ng/g | concentration at 4 h ([1]; rat, liver, po, rat, 16 mg/kg p.o. × 1 d, no RT, read-out: Concentration in liver): 1460 ± 340 ng/g | concentration at 4 h ([1]; rat, liver, po, rat, 16 mg/kg p.o. × 3 d, no RT, read-out: Concentration in liver): 1450 ± 740 ng/g | concentration at 4 h ([1]; rat, lung, oral, rat, RT2 Gy × 1 f'x with regorafenib 16 mg/kg × 1 d (concurrent), read-out: Concentration in lung): 290 ± 190 ng/g | concentration at 4 h ([1]; rat, lung, oral, rat, RT9 Gy × 1 f'x followed by regorafenib 16 mg/kg × 1 d (sequential), read-out: Concentration in lung): 1010 ± 700 ng/g | concentration at 4 h ([1]; rat, lung, oral, rat, RT9 Gy × 3 f'x followed by regorafenib 16 mg/kg × 3 d (sequential), read-out: Concentration in lung): 370 ± 230 ng/g | concentration at 4 h ([1]; rat, lung, oral, rat, RT9 Gy × 3 f'x with regorafenib 16 mg/kg × 3 d (concurrent), read-out: Concentration in lung): 250 ± 180 ng/g | concentration at 4 h ([1]; rat, lung, po, rat, 16 mg/kg p.o. × 1 d, no RT, read-out: Concentration in lung): 470 ± 180 ng/g | concentration at 4 h ([1]; rat, lung, po, rat, 16 mg/kg p.o. × 3 d, no RT, read-out: Concentration in lung): 1120 ± 250 ng/g | concentration at 4 h ([1]; rat, spleen, oral, rat, RT2 Gy × 1 f'x with regorafenib 16 mg/kg × 1 d (concurrent), read-out: Concentration in spleen): 190 ± 70 ng/g | concentration at 4 h ([1]; rat, spleen, oral, rat, RT9 Gy × 1 f'x followed by regorafenib 16 mg/kg × 1 d (sequential), read-out: Concentration in spleen): 680 ± 450 ng/g | concentration at 4 h ([1]; rat, spleen, oral, rat, RT9 Gy × 3 f'x followed by regorafenib 16 mg/kg × 3 d (sequential), read-out: Concentration in spleen): 230 ± 310 ng/g | concentration at 4 h ([1]; rat, spleen, oral, rat, RT9 Gy × 3 f'x with regorafenib 16 mg/kg × 3 d (concurrent), read-out: Concentration in spleen): 100 ± 80 ng/g | concentration at 4 h ([1]; rat, spleen, po, rat, 16 mg/kg p.o. × 1 d, no RT, read-out: Concentration in spleen): 260 ± 100 ng/g | concentration at 4 h ([1]; rat, spleen, po, rat, 16 mg/kg p.o. × 3 d, no RT, read-out: Concentration in spleen): 380 ± 220 ng/g | Concentrations of regorafenib in the brain (in words) ([1]; rat, all regimens): very limited | Biodistribution in heart, liver, lung, spleen and kidneys (in words) ([1]; sequential RT2 Gy × 1 f'x and RT9 Gy × 1 f'x vs control (regorafenib × 1 d)): increased the biodistribution of regorafenib | IC50 (Hep G2 cells; HepG2, 24 h, Hep G2, RT0 Gy, S (regorafenib added 24 h following RT)): 17.7 µM | IC50 (Hep G2 cells; HepG2, 24 h, Hep G2, RT2 Gy, S (regorafenib added 24 h following RT)): 18.9 µM | IC50 (Hep G2 cells; HepG2, 24 h, Hep G2, RT9 Gy, S (regorafenib added 24 h following RT)): 16.8 µM | IC50 (Hep G2 cells; HepG2, Hep G2, RT0 Gy, C (regorafenib added 1 h following RT)): 9.87 µM | IC50 (Hep G2 cells; HepG2, Hep G2, RT2 Gy, C (regorafenib added 1 h following RT)): 10.5 µM | IC50 (Hep G2 cells; HepG2, Hep G2, RT9 Gy, C (regorafenib added 1 h following RT)): 8.43 µM | viability at 5 µM (Hep G2 cells; Hep G2, RT0 Gy, C): 74.6 ± 2.4% | viability at 5 µM (Hep G2 cells; Hep G2, RT0 Gy, S): 82 ± 1.9% | viability at 5 µM (Hep G2 cells; Hep G2, RT2 Gy, C): 73.1 ± 11.7% | viability at 5 µM (Hep G2 cells; Hep G2, RT2 Gy, S): 72.1 ± 1.7% | viability at 5 µM (Hep G2 cells; Hep G2, RT9 Gy, C): 64.7 ± 11.3% | viability at 5 µM (Hep G2 cells; Hep G2, RT9 Gy, S): 71 ± 5.3% | viability at 10 µM (Hep G2 cells; Hep G2, RT0 Gy, C): 51.3 ± 3.1% | viability at 10 µM (Hep G2 cells; Hep G2, RT0 Gy, S): 67 ± 1.3% | viability at 10 µM (Hep G2 cells; Hep G2, RT2 Gy, C): 50.8 ± 7% | viability at 10 µM (Hep G2 cells; Hep G2, RT2 Gy, S): 64.1 ± 1.3% | viability at 10 µM (Hep G2 cells; Hep G2, RT9 Gy, C): 46.7 ± 8.9% | viability at 10 µM (Hep G2 cells; Hep G2, RT9 Gy, S): 64.2 ± 4.3% | viability at 20 µM (Hep G2 cells; Hep G2, RT0 Gy, C): 24.7 ± 1.2% | viability at 20 µM (Hep G2 cells; Hep G2, RT0 Gy, S): 46 ± 3.4% | viability at 20 µM (Hep G2 cells; Hep G2, RT2 Gy, C): 24.5 ± 2.5% | viability at 20 µM (Hep G2 cells; Hep G2, RT2 Gy, S): 42.4 ± 0.8% | viability at 20 µM (Hep G2 cells; Hep G2, RT9 Gy, C): 20.6 ± 1.5% | viability at 20 µM (Hep G2 cells; Hep G2, RT9 Gy, S): 38.5 ± 1.9%
